Data on 10 compounds can be found in ChEMBL document CHEMBL5385897, “Computer-Aided drug design of new 2-amino-thiophene derivatives as anti-leishmanial agents” (Eur J Med Chem, 2023).

pIC50: −log10 of the molar value.

One may read the pIC50 as −log10 of the IC50, conventionally taken in molar units. For orientation: CC50 means the concentration giving 50% cytotoxicity. A high value points to lower toxicity to the cells.

For data set [1], the system named is Leishmania amazonensis. Kind of data set: Antileishmanial activity against Leishmania amazonensis axenic amastigote assessed as inhibition of parasite growth incubated for 72 hrs by MTT colorimetric assay. Format: functional, organism-based. For orientation: Tetrazolium dyes change colour on reduction, which living cells bring about.
The test system of data set [2] is Leishmania amazonensis. Put plainly: Antileishmanial activity against Leishmania amazonensis promastigote assessed as inhibition of parasite growth incubated for 72 hrs by MTT colorimetric assay. It is filed as functional, organism-based.
A short description of data set [3]: Cytotoxicity against mouse J774.A1 cells incubated for 72 hrs by MTT colorimetric assay. Format: toxicity, cell-based.
A short description of data set [4]: Selectivity index, ratio of CC50 for cytotoxicity against mouse J774.A1 cells to IC50 for antileishmanial activity against Leishmania amazonensis promastigote assessed as inhibition of parasite growth. It is filed as toxicity, cell-based. The note with it: read-out: Ratio CC50/IC50.
Data set [5] can be described thus: Selectivity index, ratio of CC50 for cytotoxicity against mouse J774.A1 cells to IC50 for antileishmanial activity against Leishmania amazonensis axenic amastigote assessed as inhibition of parasite growth. It is filed as toxicity, cell-based. The note with it: read-out: Ratio CC50/IC50.

Consider `N#Cc1c(N)sc2c1CCCC2`, for which the pIC50 in the data set on Leishmania amazonensis [1] was below 5.00.
`COc1ccc2[nH]cc(/C=N/c3sc4c(c3C#N)CCCCCC4)c2c1`: the pIC50 in the data set with Leishmania amazonensis [2] is 3.05; in the data set with Leishmania amazonensis [1] it was 2.67.
For `N#Cc1c(/N=C/c2c[nH]c3ccc(Br)cc23)sc2c1CCCCCCCCCC2`, the CC50 at 72 h in data set [3] is above 100 µM. The pIC50 in the data set on Leishmania amazonensis [2] and with Leishmania amazonensis [1] was below 5.00 in each case.
Compound `N#Cc1c(/N=C/c2c[nH]c3ccc(Br)cc23)sc2c1CCCCCC2` yielded a CC50 at 72 h in data set [3] above 100 µM. Also, the selectivity ratio is above 21.1 in data set [4] and above 26.3 in data set [5]. The pIC50 in the data set on Leishmania amazonensis [2] was 5.32; in the data set with Leishmania amazonensis [1], 5.42.
As to `N#Cc1c(/N=C/c2c[nH]c3ccc(Br)cc23)sc2c1CCNC2`, it took 11.2 µM to reach half-maximal cytotoxicity in data set [3] (CC50 at 72 h). In addition, the pIC50 with Leishmania amazonensis [2] and in the data set on Leishmania amazonensis [1] was below 5.00 each time.
In data set [3], `CC1CCc2c(sc(/N=C/c3c[nH]c4ccc(Br)cc34)c2C#N)C1` (stereo unspecified) registered a CC50 at 72 h above 100 µM. In addition, the selectivity ratio was above 10.1 in data set [4] and above 11.5 in data set [5]. Moreover, the pIC50 with Leishmania amazonensis [2] is 5.00; in the data set with Leishmania amazonensis [1], 5.06.
For `N#Cc1c(/N=C/c2c[nH]c3ccc(Br)cc23)sc2c1CCC2`, the CC50 at 72 h in data set [3] was above 100 µM. Besides, the pIC50 with Leishmania amazonensis [2] and in the data set with Leishmania amazonensis [1] was below 5.00 throughout.
`N#Cc1c(N)sc2c1CCCCC2` had a CC50 at 72 h in data set [3] of 99.5 µM. In addition, the selectivity ratio in data set [4] turned out to be 31.1; in data set [5], 35.7. In addition, the pIC50 with Leishmania amazonensis [1] is 5.55.
`N#Cc1c(N)sc2c1CCCCCC2` displayed a CC50 at 72 h in data set [3] of 43.9 µM. Further, the selectivity ratio in data set [4] stood at 36.6; in data set [5], 4.47. Further, the pIC50 with Leishmania amazonensis [2] is 5.92; in the data set with Leishmania amazonensis [1], 5.01.
Take `N#Cc1ccsc1/N=C/c1c[nH]c2ccc(Br)cc12`: the midpoint of cytotoxicity in data set [3], the CC50 at 72 h, lay at 84.7 µM. Besides, the selectivity ratio turned out to be 8.73 in data set [4] and 119 in data set [5]. Besides, the pIC50 with Leishmania amazonensis [2] is 5.01; in the data set on Leishmania amazonensis [1] it was 6.15.
